From patent US4983601A, “Benzo(b)pyrrolobenzodiazepines” (Hoechst-Roussel Pharmaceutical Inc., priority 1989, dated 1991)

Each molecule was assayed on phenyl-para-quinone induced writhes (assay: phenyl-para-quinone writhing assay in mice (analgetic activity)). Details: screening dose of 20 mg/kg, subcutaneous (sc).
Format: in vivo
Protocol: Exptl. Biol. Med., 95, 729 ([…])]. Presented in the Table is the analgetic activity of representative compounds of the invention and a standard, expressed as the estimated subcutaneous dose at which the mice experience a 50% reduction in phenyl-para-quinone induced writhes, i.e., the ED50 -value, or the percent inhibition of writhing caused by a screening dose of 20 mg/kg of body weight administered subcutaneously (sc).

Row | SMILES | Analgetic Activity, percent inhibition of writhing [%]
1 | Cc1ccc2c(c1)n1c(CN(C)C)nnc1c1cccc3ccn2c31 [11-Methyl-8-(dimethylamino)methylbenzo[b]pyrrolo[3,2,1-jk][1,2,4]triazolo[4,3-d][1,4]benzodiazepine] | 57
2 | Brc1ccc2c(c1)-n1nnnc1-c1cccc3c1N2CC3 [11-Bromo-1,2-dihydrobenzo[b]pyrrolo[3,2,1-jk]tetrazolo[1,5-d][1,4]benzodiazepine] | 56
3 | O=c1n(CCc2ccccc2)nc2n1-c1ccccc1N1CCc3cccc-2c31 [1,2-Dihydro-7-(2-phenylethyl)benzo[b]pyrrolo[3,2,1-jk][1,2,4]triazolo[4,3-d][1,4]benzodiazepin-8(7H)-one] | 62
4 | O=c1n(CCCc2noc3cc(F)ccc23)nc2n1-c1cc(Br)ccc1N1CCc3cccc-2c31 [11-Bromo-1,2-dihydro-7-[3-(6-fluoro-1,2-benzisoxazol-3-yl)-1-propyl]benzo[b]pyrrolo[3,2,1-jk][1,2,4]triazolo[4,3-d][1,4]benzodiazepin-8(7H)-one] | 54

Same assay, conditions: subcutaneous (sc)

Row | SMILES | Analgetic Activity, ED50 (estimated subcutaneous dose at which the mice experience a 50% reduction in phenyl-para-quinone induced writhes) [mg/kg]
5 | CCC(=O)O[C@](Cc1ccccc1)(c1ccccc1)[C@H](C)CN(C)C [propoxyphene, reference compound] | 3.9
6 | CN(C)Cc1nnc2n1-c1cc(Br)ccc1N1CCc3cccc-2c31 [11-Bromo-1,2-dihydro-8-(dimethylamino)methylbenzo[b]pyrrolo[3,2,1-jk][1,2,4]triazolo[4,3-d][1,4]benzodiazepine] | 3.55
